Data taken from patent US7829575B2, “Methods for treating androgen receptor related disorders” (University of Cincinnati, priority 2006, dated 2010).
Where a SMILES comes first, the peptide text is derived from it. The star is where a group is joined. Cbz = O=C(OCc1ccccc1)*

What was measured:
[1] = test system: LNCaP-ARR2-GFP cells; assay: AR-regulated GFP expression in LNCaP-ARR2-GFP cells; assay type: cell-based; conditions: for GFP expression (AR agonist activity): SMEM, absence of DHT, DL3 at 25 nM or 20 μM; for cell growth: LNCaP-ARR2-GFP cells
[2] = test system: LNCaP cells (mutant AR, H877A); assay: LNCaP cell growth, MTT staining; assay type: cell-based
Excerpt: (§1) Viable cells are stained with MTT (3-(4,5-dimethylthiazol-2-yl)-2,5-diphenyltetrazolium bromide). *, **, and *** designate p<0.05, <0.01, and 0.001, respectively, compared with controls.

[3] = test system: LNCaP cells; assay: Cell cycle distribution and apoptosis, flow cytometry (propidium staining) and western blotting; assay type: cell-based; conditions: for increase of the portion of cells in G1 phase of cell cycle: regardless of presence or absence of DHT
Protocol: To further appreciate the effects of DL3 on cell growth, cell cycle distribution is determined using the flow cytometry analysis. After incubation of LNCaP cells for 24 hr in SMEM, the majority of cells are in the G1 phase of cell cycle. […] The cell cycle distribution is examined by the propidium staining method. […] Thus, DL3 induces GI arrest of prostate cancer cells in short term culture.

[4] = test system: LNCaP cells; assay: PSA secretion, ELISA of culture supernatant; assay type: cell-based; conditions: for DHT-induced PSA production / PSA production under androgen-free conditions: 20 μM, 48 hr; for PSA production under androgen-free conditions: no DHT
Protocol: PSA in the culture supernatant is determined by using an enzyme-linked immunosorbent assay (ELISA) kit. PSA levels are normalized by cell density.

[5] = test system: LNCaP cells; assay: Cellular PSA and AR protein, western blotting; assay type: cell-based
Protocol: In FIG. 6, cellular PSA and AR are analyzed by western blotting androgen-starved LNCaP cells.

[6] = test system: LNCaP cells; assay: PSA and AR mRNA expression, RT-PCR; assay type: cell-based; conditions: 24 hr; for expression of AR mRNA: 20 μM DL3 or Bical
Protocol: In FIG. 7 LNCaP or 22Rv1 cells (A) are treated for 24 hr with DL3 and total RNA is extracted and analyzed by real-time RT-PCR. […] PSA mRNA in LNCaP cells is approximately 20 fold higher than that in 22Rv1 cells (FIG. 7A).

[7] = test system: LNCaP cells; assay: AR protein stability and hsp70/hsp90 expression, western blotting; assay type: cell-based
Protocol: Cell lysates are prepared and analyzed by western blotting. […] To further determine how DL3 downregulates AR, LNCaP cells are incubated for 24 hr with DL3 in the absence or presence of proteasome inhibitor MG132.
Hsp70 and hsp90 are key molecular chaperones in cells. Along with several co-chaperones, hsp70 and hsp90 play critical roles in folding and assembling AR to a high-affinity ligand binding conformation and in regulating AR activation that occurs following hormone binding. Therefore, the possibility of whether the downregulation of AR protein by DL3 is mediated by its effects on hsp70 or hsp90 expression is investigated.
Thus, the effects of DL3 on hsp70 expression are further investigated in several other prostate cancer cell lines, including LAPC-4 (wildtype AR), 22Rv1 (mutant AR), and AR-negative cell lines PC-3, DU-145, PWE1-NB14 (ATCC), and PWE1-NB26 (ATCC). […] In FIG. 10, LAPC-4 (in SMEM) and all other (in CMEM) cells are treated for 24 hr and analyzed by western blotting. LNCaP cells are transfected for 24 hr with hsp70 or its control vector, then treated for 24 hr.

[8] = test system: LNCaP cells; assay: PSA and AR mRNA expression, RT-PCR; assay type: cell-based; conditions: 6 hr
[9] = test system: human PSA gene promoter; assay: PSA promoter luciferase reporter (pGL3-PSA-luc) in LNCaP cells; conditions: 1 nM DHT, 24 hr
[10] = test system: LNCaP-Flut-R cells; assay: Growth of Flut-refractory LNCaP cells, MTT; assay type: cell-based; conditions: 10 μM, 4 days, MTT (FIG. 2F)
Excerpt: as §1

[11] = test system: LNCaP-Nilut-R cells; assay: Growth of Nilut-refractory LNCaP cells, MTT; assay type: cell-based; conditions: 10 μM, 4 days, MTT (FIG. 2F)
Excerpt: as §1

[12] = test system: LNCaP-Flut-R cells; assay: PSA secretion, ELISA of culture supernatant; assay type: cell-based; conditions: 1 nM DHT, 10 μM, 48 hr (FIG. 5D)
Protocol: (§2) For the following discussion, see FIG. 5, where androgen-starved LNCaP, LNCaP-Flut-R, or LNCaP-Nilut-R cells are plated into 96-well plates at 2×10^4 cells/wells in SMEM and treated for 48 hr. PSA in the culture supernatant is determined by using an enzyme-linked immunosorbent assay (ELISA) kit. PSA levels are normalized by cell density. […] The DHT-induced production of PSA is reduced by approximately 50% in cells treated with 5 μM of DL3 (FIG. 5B). […] PSA production is elevated in LNCaP-Flut-R and LNCaP-Nilut-R cells compared with that in their parental cells (FIG. 5D).

[13] = test system: LNCaP-Nilut-R cells; assay: PSA secretion, ELISA of culture supernatant; assay type: cell-based; conditions: 1 nM DHT, 10 μM, 48 hr (FIG. 5D)
Protocol: as §2

CC(O)(CS(=O)(=O)c1ccc(F)cc1)C(=O)Nc1ccc(C#N)c(C(F)(F)F)c1 (stereo not drawn) [Bical, Bicalutamide, reference compound]
GFP expression (AR agonist activity) [1]: not
effect on DHT-stimulated growth of LNCaP cells [2]: inhibit DHT-stimulated growth of LNCaP cells in a dose-dependent manner
increase of the portion of cells in G1 phase of cell cycle ([3]; 24 hr): 15%
induction of apoptosis ([3]; 24 hr, DL3 at 20 μM): does not induce apoptosis
survivin expression and caspase 3 cleavage (western blotting) ([3]; data not shown): alter neither survivin expression nor caspase 3 cleavage
DHT-induced PSA production ([4]; 1 nM DHT): reduce DHT-induced PSA production
PSA production under androgen-free conditions [4]: stimulates PSA production
PSA protein expression under androgen-free culture conditions ([5]; 20 μM, 24 hr): enhances PSA expression
expression of AR protein ([5]; 20 μM, 24 hr (FIG. 6C)): moderately downregulated
DHT-induced PSA protein expression ([5]; SMEM, 24 hr, Flut, Nilut, Bical at 20 μM): moderately reduced
DHT-stimulated PSA mRNA expression ([6]; 20 μM, 1 nM DHT): only partially inhibits
basal level of PSA mRNA ([6]; 20 μM, androgen-starved): no significant effects
expression of AR mRNA ([6]; 1 nM DHT): partially downregulated

C[C@]12CCC(=O)C[C@@H]1CC[C@@H]1[C@@H]2CC[C@]2(C)[C@@H](O)CC[C@@H]12 [DHT, dihydrotestosterone, reference compound]
PSA production [4]: significantly elevated
expression of AR mRNA ([6]; 1 nM DHT): partially downregulated
expression of hsp70 ([7]; SMEM, 24 hr with DHT or CHX (FIG. 9B, lane 3 or 5 vs. lane 1)): also reduced
AR mRNA expression [8]: not significantly altered
enhancement of PSA promoter activity [9]: approximately 5 fold

CC(C)C(=O)Nc1ccc([N+](=O)[O-])c(C(F)(F)F)c1 [Flut, Flutamide]
increase of the portion of cells in G1 phase of cell cycle ([3]; 24 hr): 15%

O=c1c(-c2ccc(O)cc2)coc2cc(O)cc(O)c12 [Genistein]
cell growth [1]: significantly inhibited cell growth
GFP expression (AR agonist activity) [1]: enhanced GFP expression

CC(C)C[C@@H](C=O)NC(=O)[C@H](CC(C)C)NC(=O)[C@H](CC(C)C)NC(=O)OCc1ccccc1 [MG132, reference compound] (Cbz-Leu-Leu-Leu-aldehyde)
DL3-induced reduction of AR ([7]; 24 hr with DL3 in presence of MG132): reversed

CC1(C)NC(=O)N(c2ccc([N+](=O)[O-])c(C(F)(F)F)c2)C1=O [Nilut, Nilutamide, reference compound]
growth of LNCaP-Flut-R cells [10]: promotes growth
growth of LNCaP-Nilut-R cells [11]: promotes growth
PSA production in parental LNCaP cells ([4]; 1 nM DHT, 10 μM, 48 hr (FIG. 5D)): enhances PSA production
DHT-induced PSA production ([4]; 1 nM DHT): not
PSA production under androgen-free conditions [4]: stimulates PSA production
PSA production in LNCaP-Flut-R cells [12]: enhances PSA production
PSA production in LNCaP-Nilut-R cells [13]: enhances PSA production

O=c1c(O)c(-c2ccc(O)c(O)c2)oc2cc(O)cc(O)c12 [Querstin]
cell growth [1]: significantly inhibited cell growth
GFP expression (AR agonist activity) [1]: enhanced GFP expression

Oc1ccc(/C=C/c2cc(O)cc(O)c2)cc1 [Resveratol]
cell growth [1]: significantly inhibited cell growth
GFP expression (AR agonist activity) [1]: enhanced GFP expression
